Results on 9 compounds are retold here after patent publication US10004701B2, “Methods and compositions for treating infection” (UNIVERSITY OF ROCHESTER, priority 2012, dated 2018).

Common to all, as to test: AK assay 384-well format, Prestwick library screening
The subject of one assay is E. faecium. The assay is classed as cell-based, Enterococcus faecium. To be noted: 50 μM final drug concentration; for fold induction at 50 µM: Enterococcus faecium, 3 h.
Assay [1] deals with S. aureus strain USA300-0114. The assay is classed as cell-based, Staphylococcus aureus. Particulars: 50 μM final drug concentration; for fold induction at 50 µM: Staphylococcus aureus, USA300, 3 h.
For another assay, the system named is K. pneumoniae. The assay is classed as cell-based, Klebsiella pneumoniae. Particulars: 50 μM final drug concentration; for fold induction at 50 µM: Klebsiella pneumoniae, 3 h.
The test system of assay [2] is A. baumannii strain 98-37-09. The assay is classed as cell-based, Acinetobacter baumannii. Particulars: 50 μM final drug concentration; for fold induction at 50 µM: Acinetobacter baumannii, 983709, 3 h.
Another assay relates to P. aeruginosa. The assay is classed as cell-based, Pseudomonas aeruginosa. To be noted: 50 μM final drug concentration; for fold induction at 50 µM: Pseudomonas aeruginosa, 3 h.
For a further assay, the system named is E. cloacae. The assay is classed as cell-based, Enterobacter cloacae. Particulars: 50 μM final drug concentration; for fold induction at 50 µM: Enterobacter cloacae, 3 h.
The subject of another assay is E. coli. The assay is classed as cell-based, Escherichia coli. Particulars: 50 μM final drug concentration; for fold induction at 50 µM: Escherichia coli, 3 h.
[3] abbreviates: planktonic E. faecium, cutoff for positive-scoring molecules 3-fold increase, read-out: AK-based Prestwick Library Screening Results, E. faecium (increase in extracellular AK activity).
Setting [4] is: planktonic S. aureus, cutoff for positive-scoring molecules 3-fold increase, read-out: AK-based Prestwick Library Screening Results, S. aureus (increase in extracellular AK activity).
Setting [5] is: planktonic K. pneumoniae, cutoff for positive-scoring molecules 3-fold increase, read-out: AK-based Prestwick Library Screening Results, K. pneumoniae (increase in extracellular AK activity).
The mark [6] stands for this setting: planktonic A. baumannii, cutoff for positive-scoring molecules 3-fold increase, read-out: AK-based Prestwick Library Screening Results, A. baumannii (increase in extracellular AK activity).
[7] abbreviates: planktonic P. aeruginosa, cutoff for positive-scoring molecules 3-fold increase, read-out: AK-based Prestwick Library Screening Results, P. aeruginosa (increase in extracellular AK activity).
Where [8] appears, read: planktonic E. cloacae, cutoff for positive-scoring molecules 3-fold increase, read-out: AK-based Prestwick Library Screening Results, E. cloacae (increase in extracellular AK activity).
[9] abbreviates: planktonic E. coli, cutoff for positive-scoring molecules 3-fold increase, read-out: AK-based Prestwick Library Screening Results, E. coli (increase in extracellular AK activity).
[10] abbreviates: planktonic, cutoff for positive-scoring molecules 3-fold increase.
[11] abbreviates: cutoff for positive-scoring molecules 3-fold increase, read-out: AK-based Prestwick Library Screening Results, E. faecium (fold increase in extracellular AK activity).
Where [12] appears, read: cutoff for positive-scoring molecules 3-fold increase, read-out: AK-based Prestwick Library Screening Results, S. aureus (fold increase in extracellular AK activity).
The mark [13] stands for this setting: cutoff for positive-scoring molecules 3-fold increase, read-out: AK-based Prestwick Library Screening Results, K. pneumoniae (fold increase in extracellular AK activity).
Where [14] appears, read: cutoff for positive-scoring molecules 3-fold increase, read-out: AK-based Prestwick Library Screening Results, A. baumannii (fold increase in extracellular AK activity).
Setting [15] is: cutoff for positive-scoring molecules 3-fold increase, read-out: AK-based Prestwick Library Screening Results, P. aeruginosa (fold increase in extracellular AK activity).
The mark [16] stands for this setting: cutoff for positive-scoring molecules 3-fold increase, read-out: AK-based Prestwick Library Screening Results, E. cloacae (fold increase in extracellular AK activity).
The mark [17] stands for this setting: cutoff for positive-scoring molecules 3-fold increase, read-out: AK-based Prestwick Library Screening Results, E. coli (fold increase in extracellular AK activity).

Where a name gives a salt, the structure may show the parent alone. Read-outs that look alike come from different tables or passages of the source.

Regarding `CN/C(=N/CCSCc1nc[nH]c1C)NC#N` [Cimetidine], the fold induction at 50 µM in the assay on E. faecium (384-well format, cutoff for positive-scoring molecules 3-fold increase, read-out: AK-based Prestwick Library Screening Results, E. faecium (increase in extracellular AK activity)) stood at 0.9; in assay [1] (384-well format, cutoff for positive-scoring molecules 3-fold increase, read-out: AK-based Prestwick Library Screening Results, S. aureus (increase in extracellular AK activity)) it was 0.8; in the assay on K. pneumoniae (384-well format, cutoff for positive-scoring molecules 3-fold increase, read-out: AK-based Prestwick Library Screening Results, K. pneumoniae (increase in extracellular AK activity)), 0.7; in assay [2] (384-well format, cutoff for positive-scoring molecules 3-fold increase, read-out: AK-based Prestwick Library Screening Results, A. baumannii (increase in extracellular AK activity)), 0.8; in the assay on P. aeruginosa (384-well format, cutoff for positive-scoring molecules 3-fold increase, read-out: AK-based Prestwick Library Screening Results, P. aeruginosa (increase in extracellular AK activity)), 0.8; in the assay on E. cloacae (384-well format, cutoff for positive-scoring molecules 3-fold increase, read-out: AK-based Prestwick Library Screening Results, E. cloacae (increase in extracellular AK activity)), 1. Further, the fold induction at 50 µM in the assay on E. coli (384-well format, cutoff for positive-scoring molecules 3-fold increase, read-out: AK-based Prestwick Library Screening Results, E. coli (increase in extracellular AK activity)) turned out to be 0.9.
`COc1ccc2[nH]c([S+]([O-])Cc3ncc(C)c(OC)c3C)nc2c1` (stereo not drawn) [Omeprazole]: the fold induction at 50 µM in the assay with E. faecium (setting [3]) was found to be 0.8; in assay [1] (setting [4]), 0.2; with K. pneumoniae (setting [5]), 0.6; in assay [2] (setting [6]) it was 0.8; with P. aeruginosa (setting [7]), 0.6; in the assay with E. cloacae (setting [8]) it was 0.8. For the same compound, the fold induction at 50 µM in the assay with E. coli (setting [9]) is 0.7.
As for `CN1CCC2=C[C@H](O)[C@H]3OC(=O)c4cc5c(cc4[C@H]3[C@@H]21)OCO5` [Hippeastrine hydrobromide], the “AK-based Prestwick Library Screening Results, E. faecium (fold increase in extracellular AK activity)” value in the assay with E. faecium (setting [10]) is reported as 0.9. The “AK-based Prestwick Library Screening Results, S. aureus (fold increase in extracellular AK activity)” value in assay [1] (setting [10]) amounted to 0.7. Further, the “AK-based Prestwick Library Screening Results, K. pneumoniae (fold increase in extracellular AK activity)” value in the assay on K. pneumoniae (setting [10]) amounted to 0.6. Moreover, the “AK-based Prestwick Library Screening Results, A. baumannii (fold increase in extracellular AK activity)” value in assay [2] (setting [10]) amounted to 0.8. Further, the “AK-based Prestwick Library Screening Results, P. aeruginosa (fold increase in extracellular AK activity)” value with P. aeruginosa (setting [10]) is given as 0.9. Besides, in the assay on E. cloacae (setting [10]), the “AK-based Prestwick Library Screening Results, E. cloacae (fold increase in extracellular AK activity)” value is 1.4. Also, in the assay with E. coli (setting [10]), the “AK-based Prestwick Library Screening Results, E. coli (fold increase in extracellular AK activity)” value is recorded as 0.9.
Turning to `COC(=O)C1=CCCN(C)C1` [Arecoline hydrobromide], the fold induction at 50 µM with E. faecium (planktonic E. faecium, 384-well, […], read-out: AK-based Prestwick Library Screening Results: E. faecium (increase in extracellular AK activity)) was determined as 0.9; in assay [1] (planktonic S. aureus, 384-well, […], read-out: AK-based Prestwick Library Screening Results: S. aureus (increase in extracellular AK activity)), 0.4; with K. pneumoniae (planktonic K. pneumoniae, 384-well, […], read-out: AK-based Prestwick Library Screening Results: K. pneumoniae (increase in extracellular AK activity)), 0.4; in assay [2] (planktonic A. baumannii, 384-well, […], read-out: AK-based Prestwick Library Screening Results: A. baumannii (increase in extracellular AK activity)) it was 0.4; in the assay on P. aeruginosa (planktonic P. aeruginosa, 384-well, […], read-out: AK-based Prestwick Library Screening Results: P. aeruginosa (increase in extracellular AK activity)), 0.4; with E. cloacae (planktonic E. cloacae, 384-well, […], read-out: AK-based Prestwick Library Screening Results: E. cloacae (increase in extracellular AK activity)), 0.3. The fold induction at 50 µM with E. coli (planktonic E. coli, 384-well, […], read-out: AK-based Prestwick Library Screening Results: E. coli (increase in extracellular AK activity)) came out at 0.4.
As to `Nc1ccc(S(=O)(=O)NC(=O)c2ccccc2)cc1` [Sulfabenzamide], the fold induction at 50 µM in the assay with E. faecium (setting [11]) worked out at 1.1; in assay [1] (setting [12]), 1.2; in the assay with K. pneumoniae (setting [13]), 1.1; in assay [2] (setting [14]), 2.8; in the assay with P. aeruginosa (setting [15]) it was 1.1; with E. cloacae (setting [16]), 1.6. In addition, the fold induction at 50 µM in the assay on E. coli (setting [17]) stood at 1.1.
Turning to `NC[C@@H]1O[C@H](O[C@H]2[C@@H](O)[C@H](O[C@@H]3[C@@H](O)[C@H](N)C[C@H](N)[C@H]3O[C@H]3O[C@H](CO)[C@@H](O)[C@H](O)[C@H]3N)O[C@@H]2CO)[C@H](N)[C@@H](O)[C@@H]1O` [Paromomycin sulfate], the fold induction at 50 µM is 0.9 in the assay on E. faecium (setting [11]); 1.3 in assay [1] (setting [12]); 1 in the assay with K. pneumoniae (setting [13]); 1.5 in assay [2] (setting [14]); 1 with P. aeruginosa (setting [15]); 1.4 in the assay on E. cloacae (setting [16]). For the same compound, the fold induction at 50 µM with E. coli (setting [17]) was 1.4.
Regarding `COc1ccc(-c2ccc(=N)n(CCCC(=O)O)n2)cc1` [Gabazine], the fold induction at 50 µM in the assay with E. faecium (setting [3]) came out at 1.1; in assay [1] (setting [4]) it was 1.1; with K. pneumoniae (setting [5]), 0.8; in assay [2] (setting [6]) it was 1.1; with P. aeruginosa (setting [7]), 1; in the assay with E. cloacae (setting [8]) it was 1.3. Moreover, the fold induction at 50 µM in the assay on E. coli (setting [9]) turned out to be 1.
Take `Cc1cc(C)nc(NS(=O)(=O)c2ccc(N)cc2)n1` [Sulfamethazine sodium salt]: the fold induction at 50 µM with E. faecium (setting [11]) amounted to 1; in assay [1] (setting [12]) it was 1.4; in the assay on K. pneumoniae (setting [13]) it was 1; in assay [2] (setting [14]) it was 1.6; in the assay with P. aeruginosa (setting [15]), 1.1; in the assay on E. cloacae (setting [16]) it was 1.4. For the same compound, the fold induction at 50 µM in the assay with E. coli (setting [17]) is 1.
On to `Nc1c2c(nc3ccccc13)CCCC2` [Tacrine hydrochloride hydrate], for which the fold induction at 50 µM in the assay on E. faecium (planktonic E. faecium, 384-well, cutoff for positive-scoring molecules 3-fold increase, read-out: AK-based Prestwick Library Screening Results: E. faecium (increase in extracellular AK activity)) came to 0.9; in assay [1] (planktonic S. aureus, 384-well, cutoff for positive-scoring molecules 3-fold increase, read-out: AK-based Prestwick Library Screening Results: S. aureus (increase in extracellular AK activity)) it was 0.5; in the assay on K. pneumoniae (planktonic K. pneumoniae, 384-well, cutoff for positive-scoring molecules 3-fold increase, read-out: AK-based Prestwick Library Screening Results: K. pneumoniae (increase in extracellular AK activity)), 0.4; in assay [2] (planktonic A. baumannii, 384-well, cutoff for positive-scoring molecules 3-fold increase, read-out: AK-based Prestwick Library Screening Results: A. baumannii (increase in extracellular AK activity)), 0.5; in the assay on P. aeruginosa (planktonic P. aeruginosa, 384-well, cutoff for positive-scoring molecules 3-fold increase, read-out: AK-based Prestwick Library Screening Results: P. aeruginosa (increase in extracellular AK activity)), 0.5; in the assay on E. cloacae (planktonic E. cloacae, 384-well, cutoff for positive-scoring molecules 3-fold increase, read-out: AK-based Prestwick Library Screening Results: E. cloacae (increase in extracellular AK activity)) it was 0.4. The fold induction at 50 µM with E. coli (planktonic E. coli, 384-well, cutoff for positive-scoring molecules 3-fold increase, read-out: AK-based Prestwick Library Screening Results: E. coli (increase in extracellular AK activity)) was found to be 0.5.
